These results are taken from patent publication US20250082656A1, “DOSAGE REGIMENS FOR TREATMENT OF DENGUE INFECTION” (Atea Pharmaceuticals, Inc., priority 2022, published 2025).

In series [1] the target is T1, DENV1 NS5 (Dengue virus type 1, UniProt P17763). The experiment in a line: Nucleotide analogue incorporation / discrimination assay, DENV1 NS5. As to conditions: GTP for AT-9010 and AT-9002, UTP for SOF-TP. In kind it is biochemical. As to the method: (§1) The chain-terminating efficiency of Compound 5 was measured in competitive nucleotide incorporation assays using all four DENV serotypes. […] In comparison, sofosbuvir triphosphate is incorporated into the RNA less than 1 time for every 100 UTP (native uridine triphosphate) incorporations.
(§2) Measurements and quantitations were as in FIG. 19B.
(§3) DENV NS5 was pre-incubated with the annealed P10/T20 RNA in an assembly buffer containing 20 mM HEPES pH 7.5, 10% glycerol, 5 mM MgCl2, and 5 mM DTT for 10 min at 30° C. to create an active RNA elongation complex.
(§4) Reactions were started by adding AT-9010 with either all four NTPs or UTP, ATP, and CTP only.
(§5) Single nucleotide incorporation was tested as follows. Reactions were started by adding the corresponding NTP or analogue. Final concentrations were 1 μM NS5, 0.25 μM P10/T20, 100 μM NTP or analogue in a final buffer containing 20 mM HEPES pH 7.5, 15% glycerol, 5 mM MgCl2, and 5 mM DTT.
(§6) Reactions were quenched at the designated time points in 3× volume FBD stop solution (formamide, 10 mM EDTA) and analyzed on 20% acrylamide-bisacrylamide (19:1) […] sequencing gels. RNA products were visualized using a Typhoon FluorImager then analyzed and quantified using ImageQuant software.

Series [2] concerns the target T2, DENV2 NS5 (Dengue virus type 2, UniProt P14340). Nature of the series: Nucleotide analogue incorporation / discrimination assay, DENV2 NS5. In kind it is biochemical. As to conditions: DENV2; GTP for AT-9010 and AT-9002, UTP for SOF-TP. As to the method: as §1
The experimental procedure is provided in Example 10.
as §2
DENV NS5 was preincubated with the annealed P10/T20 RNA in an assembly buffer containing 20 mM HEPES pH 7.5, 10% glycerol, 5 mM MgCl2 and 5 mM DTT for 10 min at 30° C. to create an active RNA elongation complex. Reactions were started by adding AT-9010 with either all four NTPs, or UTP, ATP and CTP only. […] Reactions were quenched at indicated timepoints in 2× volume FBD stop solution (formamide, 10 mM EDTA) and analysed on 20% acrylamide:bisacrylamide (19:1), […] sequencing gels. RNA products were visualized using a Typhoon FluorImager and analyzed using ImageQuant software.
as §3, §4, §5, §6

Series [3] deals with T3, DENV3 NS5 (Dengue virus type 3, UniProt Q6YMS4). The experiment in a line: Nucleotide analogue incorporation / discrimination assay, DENV3 NS5. In kind it is biochemical. As to conditions: GTP for AT-9010 and AT-9002, UTP for SOF-TP. As to the method: as §1, §2, §3, §4, §5, §6
Series [4] deals with T4, DENV4 NS5 (Dengue virus type 4, UniProt P09866). Nature of the series: Nucleotide analogue incorporation / discrimination assay, DENV4 NS5. As to conditions: GTP for AT-9010 and AT-9002, UTP for SOF-TP. In kind it is biochemical. How it is done: as §1
The nature of regular inserted Watson-Crick nucleotides is indicated in the right of the gel. […] Quantification of band-products greater in size than the G/AT (+5) band relative to the G/AT (+5) band were measured using a Typhoon FluorImager, and allowed to calculate the discrimination value. The incorporation rates for […] and AT9002 are compared to that of GTP, and to that of UTP in the case of SOF-TP.
as §2, §3, §4, §5, §6

In series [5] the test system is erythroid (E) human bone marrow progenitor cells. Nature of the series: Bone marrow progenitor cell assay, erythroid (E). As to conditions: E cell assay, 14 days, colonies counted.
In series [6] the test system is granulocyte macrophage (GM) human bone marrow progenitor cells. Nature of the series: Bone marrow progenitor cell assay, granulocyte macrophage (GM). As to conditions: GM cell assay, 14 days, colonies counted.
For series [7], the target named is T1, DENV1 NS5. The experiment in a line: Thermal shift assay, DENV1 NS5. As to conditions: read-out: ΔTM.
For series [8], the target named is T2, DENV2 NS5. The experiment in a line: Thermal shift assay, DENV2 NS5. As to conditions: read-out: ΔTM.
The target in series [9] is T3, DENV3 NS5. Nature of the series: Thermal shift assay, DENV3 NS5. As to conditions: read-out: ΔTM.
Series [10] concerns the target T4, DENV4 NS5. The experiment in a line: Thermal shift assay, DENV4 NS5. As to conditions: read-out: ΔTM.
The next series has as its system DENV1 RdRp domain. Nature of the series: Thermal shift assay, DENV1 RdRp domain. As to conditions: RdRp domain DENV1, 100 μM compound.
In the next series the target is DENV2 RdRp domain (Dengue virus type 2, UniProt P14340). The experiment in a line: Thermal shift assay, DENV2 RdRp domain. As to conditions: read-out: ΔTM.
Another series relates to DENV3 RdRp domain. The experiment in a line: Thermal shift assay, DENV3 RdRp domain. As to conditions: RdRp domain DENV3, 100 μM compound.
Another series relates to DENV4 RdRp domain. Nature of the series: Thermal shift assay, DENV4 RdRp domain. As to conditions: RdRp domain DENV4, 100 μM compound.
A further series deals with DENV1 MTase domain (Dengue virus type 1, UniProt P17763). Nature of the series: Thermal shift assay, DENV1 MTase domain. As to conditions: read-out: ΔTM.
A further series concerns the target DENV2 MTase domain (Dengue virus type 2, UniProt P14340). The experiment in a line: Thermal shift assay, DENV2 MTase domain. As to conditions: read-out: ΔTM.
Another series deals with DENV3 MTase domain (Dengue virus type 3, UniProt Q6YMS4). The experiment in a line: Thermal shift assay, DENV3 MTase domain. As to conditions: read-out: ΔTM.
The target of another series is DENV4 MTase domain (Dengue virus type 4, UniProt P09866). The experiment in a line: Thermal shift assay, DENV4 MTase domain. As to conditions: read-out: ΔTM.
Series [11] concerns human induced pluripotent stem cell (iPS) cardiomyocytes. The experiment in a line: Cardiomyocyte cytotoxicity assay (CellTiter Glo). As to conditions: iPS cardiomyocytes, 3 days.
Series [12] relates to NS5 RNA dependent RNA polymerase (RdRp). Nature of the series: Competitive nucleotide incorporation assays, all four DENV serotypes (summary). As to conditions: versus native uridine triphosphate. In kind it is biochemical, Dengue virus. How it is done:
As described in Example 10 and shown in FIG. 1, the active metabolite of Compound 2 or Compound 1 (Compound 5) acts as a GTP analog and is incorporated into RNA by the NS5 RNA dependent RNA polymerase (RdRp), immediately terminating synthesis.
as §1

T1 sequence (P17763 2494-3392): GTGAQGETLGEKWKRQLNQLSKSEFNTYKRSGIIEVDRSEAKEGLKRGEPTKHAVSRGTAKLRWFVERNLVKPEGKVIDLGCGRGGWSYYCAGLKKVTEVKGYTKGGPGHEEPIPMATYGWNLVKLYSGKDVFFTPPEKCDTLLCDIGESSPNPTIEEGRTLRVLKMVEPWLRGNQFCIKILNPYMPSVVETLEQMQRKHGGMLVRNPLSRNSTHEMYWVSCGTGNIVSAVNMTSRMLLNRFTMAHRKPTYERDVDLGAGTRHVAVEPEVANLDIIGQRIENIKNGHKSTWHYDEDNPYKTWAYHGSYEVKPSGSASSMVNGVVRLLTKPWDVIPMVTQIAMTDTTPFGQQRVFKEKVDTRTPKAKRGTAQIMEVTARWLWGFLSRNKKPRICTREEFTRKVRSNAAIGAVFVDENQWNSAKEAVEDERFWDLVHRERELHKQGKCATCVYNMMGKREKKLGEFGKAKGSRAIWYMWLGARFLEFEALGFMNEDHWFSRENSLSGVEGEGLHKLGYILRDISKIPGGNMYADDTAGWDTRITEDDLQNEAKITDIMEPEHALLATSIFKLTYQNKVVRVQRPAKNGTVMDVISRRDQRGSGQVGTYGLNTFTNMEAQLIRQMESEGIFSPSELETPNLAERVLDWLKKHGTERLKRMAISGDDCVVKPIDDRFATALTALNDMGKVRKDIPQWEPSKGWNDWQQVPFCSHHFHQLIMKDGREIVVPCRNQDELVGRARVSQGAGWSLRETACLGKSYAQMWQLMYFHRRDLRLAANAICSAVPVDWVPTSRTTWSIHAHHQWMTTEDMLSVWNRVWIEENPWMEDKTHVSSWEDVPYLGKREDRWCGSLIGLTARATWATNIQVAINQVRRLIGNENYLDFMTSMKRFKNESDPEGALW
T3 sequence (Q6YMS4 2491-3390): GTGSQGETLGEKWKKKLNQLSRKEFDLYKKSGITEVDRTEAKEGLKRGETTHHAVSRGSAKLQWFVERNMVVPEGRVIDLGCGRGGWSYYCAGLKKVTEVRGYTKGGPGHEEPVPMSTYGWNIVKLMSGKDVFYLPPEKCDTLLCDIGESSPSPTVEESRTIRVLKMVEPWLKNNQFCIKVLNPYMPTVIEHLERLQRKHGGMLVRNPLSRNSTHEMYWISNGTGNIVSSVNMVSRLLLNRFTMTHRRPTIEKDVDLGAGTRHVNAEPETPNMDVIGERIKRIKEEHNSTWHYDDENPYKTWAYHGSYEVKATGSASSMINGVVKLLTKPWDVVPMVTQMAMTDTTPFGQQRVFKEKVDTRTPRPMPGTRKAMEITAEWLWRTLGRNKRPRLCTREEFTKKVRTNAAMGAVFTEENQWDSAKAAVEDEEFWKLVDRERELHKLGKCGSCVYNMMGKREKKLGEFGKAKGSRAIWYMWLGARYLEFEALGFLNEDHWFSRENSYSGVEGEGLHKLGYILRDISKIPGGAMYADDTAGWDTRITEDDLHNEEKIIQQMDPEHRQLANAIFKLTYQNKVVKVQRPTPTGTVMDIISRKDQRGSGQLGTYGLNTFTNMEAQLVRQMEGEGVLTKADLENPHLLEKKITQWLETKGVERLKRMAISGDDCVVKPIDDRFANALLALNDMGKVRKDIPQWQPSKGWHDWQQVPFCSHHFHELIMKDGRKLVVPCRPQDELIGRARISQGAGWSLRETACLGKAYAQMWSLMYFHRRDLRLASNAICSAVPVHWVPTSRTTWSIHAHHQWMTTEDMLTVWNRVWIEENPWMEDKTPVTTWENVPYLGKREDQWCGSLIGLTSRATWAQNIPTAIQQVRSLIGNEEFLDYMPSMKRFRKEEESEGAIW
T4 sequence (P09866 2488-3387): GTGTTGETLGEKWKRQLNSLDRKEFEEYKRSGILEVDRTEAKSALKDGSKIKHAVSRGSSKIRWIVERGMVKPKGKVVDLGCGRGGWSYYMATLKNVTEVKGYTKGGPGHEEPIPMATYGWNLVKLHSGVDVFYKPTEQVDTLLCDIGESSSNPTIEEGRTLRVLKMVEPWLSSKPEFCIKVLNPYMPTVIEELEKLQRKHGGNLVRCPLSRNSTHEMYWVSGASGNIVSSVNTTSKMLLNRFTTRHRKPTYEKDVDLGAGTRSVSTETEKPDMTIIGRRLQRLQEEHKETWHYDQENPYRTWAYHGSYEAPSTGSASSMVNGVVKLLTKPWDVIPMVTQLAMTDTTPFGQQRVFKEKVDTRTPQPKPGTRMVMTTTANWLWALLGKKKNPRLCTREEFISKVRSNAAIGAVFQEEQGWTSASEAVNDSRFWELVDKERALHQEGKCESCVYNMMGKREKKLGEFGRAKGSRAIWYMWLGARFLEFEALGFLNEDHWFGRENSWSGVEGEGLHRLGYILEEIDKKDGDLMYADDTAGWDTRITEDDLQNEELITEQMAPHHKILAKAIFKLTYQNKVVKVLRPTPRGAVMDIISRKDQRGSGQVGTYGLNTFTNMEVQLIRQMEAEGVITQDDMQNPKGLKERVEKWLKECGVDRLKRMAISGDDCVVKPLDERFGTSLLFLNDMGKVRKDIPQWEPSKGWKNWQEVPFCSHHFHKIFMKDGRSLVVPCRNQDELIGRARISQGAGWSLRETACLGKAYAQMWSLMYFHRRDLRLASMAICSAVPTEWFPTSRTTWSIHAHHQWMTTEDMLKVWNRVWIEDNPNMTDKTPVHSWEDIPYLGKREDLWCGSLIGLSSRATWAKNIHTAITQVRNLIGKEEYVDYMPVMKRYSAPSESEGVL
Sequence of DENV3 MTase domain (Q6YMS4 2492-2753): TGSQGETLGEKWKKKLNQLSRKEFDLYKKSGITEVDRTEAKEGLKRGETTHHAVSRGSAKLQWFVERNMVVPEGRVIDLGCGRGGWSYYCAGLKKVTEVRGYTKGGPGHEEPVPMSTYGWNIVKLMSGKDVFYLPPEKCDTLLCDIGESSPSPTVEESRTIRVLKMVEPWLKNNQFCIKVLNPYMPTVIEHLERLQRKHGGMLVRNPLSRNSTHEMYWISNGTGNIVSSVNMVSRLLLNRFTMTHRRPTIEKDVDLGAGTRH
Sequence of DENV4 MTase domain (P09866 2489-2751): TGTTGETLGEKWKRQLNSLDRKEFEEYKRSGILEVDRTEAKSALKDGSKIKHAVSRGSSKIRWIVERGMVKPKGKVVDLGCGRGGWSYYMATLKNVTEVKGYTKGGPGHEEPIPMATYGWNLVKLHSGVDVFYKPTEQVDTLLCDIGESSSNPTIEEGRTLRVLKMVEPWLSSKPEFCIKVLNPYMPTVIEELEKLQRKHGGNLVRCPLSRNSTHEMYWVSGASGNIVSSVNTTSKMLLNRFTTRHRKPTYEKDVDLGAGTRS
Sequence of DENV1 MTase domain (P17763 2495-2756): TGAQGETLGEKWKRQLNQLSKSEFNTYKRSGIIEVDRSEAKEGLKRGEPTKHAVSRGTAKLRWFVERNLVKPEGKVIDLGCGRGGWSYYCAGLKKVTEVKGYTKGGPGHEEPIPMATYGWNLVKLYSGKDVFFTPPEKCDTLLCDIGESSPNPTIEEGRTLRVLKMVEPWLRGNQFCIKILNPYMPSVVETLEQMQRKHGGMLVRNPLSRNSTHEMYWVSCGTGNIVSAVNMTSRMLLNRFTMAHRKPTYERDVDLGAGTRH

On to `C[C@@]1(O)[C@H](O)[C@@H](COP(=O)(O)OP(=O)(O)OP(=O)(O)O)O[C@H]1n1cnc2c(=O)[nH]c(N)nc21` [AT-9002, 2′-methylguanosine triphosphate], for which the “Preference (discrimination) native nucleotide > analogue” value on DENV1 NS5 [1] came to 19.4 ± 2.8; on DENV2 NS5 [2] it was 18.2 ± 0.2; at DENV3 NS5 [3], 17.5 ± 1.5; at DENV4 NS5 [4], 41.5 ± 7.3.

In general, CC50 refers to the concentration giving 50% cytotoxicity. Read a high CC50 as lower toxicity to the cells. For `Cc1cn([C@H]2C[C@H](N=[N+]=[N-])[C@@H](CO)O2)c(=O)[nH]c1=O` [AZT, reference compound], the half-maximal cytotoxic concentration (CC50) in series [5] amounted to 3000 nM; in series [6] it was 2000 nM.

As usually defined, the ΔTm is the shift of the melting midpoint relative to a reference. Consider `Nc1nc2c(ncn2[C@@H]2O[C@H](COP(=O)(O)OP(=O)(O)OP(=O)(O)O)[C@@H](O)[C@H]2O)c(=O)[nH]1` [GTP, guanosine triphosphate], for which the ΔTm at 100 µM at DENV1 NS5 [7] was determined as 5.8 ± 0.1 °C; on DENV2 NS5 [8], 5.7 ± 0.1 °C; at DENV3 NS5 [9], 4.8 ± 0.1 °C; at DENV4 NS5 [10] it was 3.9 ± 0.1 °C; on DENV2 RdRp domain, 2.4 ± 0.1 °C; at DENV1 MTase domain it was 4.9 ± 0.1 °C. Besides, the ΔTm at 100 µM was found to be 5.7 ± 0.1 °C at DENV2 MTase domain, 4.1 ± 0.1 °C on DENV3 MTase domain and 4 ± 0.1 °C at DENV4 MTase domain. Moreover, the ΔTM came out at 4.5±0.2 °C in the series on DENV1 RdRp domain, 2.2 ± 0.1 °C in the series on DENV3 RdRp domain and 3.3 ± 0.1 °C in the series on DENV4 RdRp domain.

Consider `Nc1ncnc2c1ncn2[C@@H]1O[C@H](C[C@@H](N)CC[C@H](N)C(=O)O)[C@@H](O)[C@H]1O` [Sinefungin, sinefungin], for which the thermal shift (ΔTm) at 100 µM was 1.2 ± 0.1 °C on DENV1 NS5 [7]; 1.4 ± 0.1 °C on DENV2 NS5 [8]; 1.8 ± 0.1 °C on DENV3 NS5 [9]; 1.4 ± 0.1 °C on DENV4 NS5 [10]; -0.8 ± 0.1 °C at DENV2 RdRp domain; 1.9 ± 0.1 °C at DENV1 MTase domain. Further, the thermal shift (ΔTm) at 100 µM came to 2.9 ± 0.1 °C on DENV2 MTase domain, 2.1 ± 0.1 °C on DENV3 MTase domain and 2.8 ± 0.1 °C on DENV4 MTase domain.

Regarding `COc1cc2nc(N3CCN(C(=O)C4COc5ccccc5O4)CC3)nc(N)c2cc1OC` (stereo not drawn) [doxazosin, reference compound], the CC50 in [11] was 7000 nM.

As for sofosbuvir triphosphate [SOF-TP], the “Preference (discrimination) native nucleotide > analogue” value at DENV1 NS5 [1], at DENV2 NS5 [2], at DENV3 NS5 [3] and on DENV4 NS5 [4] was above 100 throughout. The “incorporations into the RNA for every 100 UTP incorporations” value in series [12] is listed as “less than 1”.
